In PubChem BioAssay (NCI):
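Assay format: 96-well plates, 48-hour exposure. Here, GI50 denotes the concentration required for 50% inhibition of growth. TGI: concentration producing complete growth inhibition.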

Experiments:
Assay in all cases: NCI tumour cell line growth inhibition, 48 h
786-0 renal = tested on: 786-0 renal
A549 NSCLC = tested on: A549 NSCLC
ACHN renal = tested on: ACHN renal
CAKI-1 renal = tested on: CAKI-1 renal
CCRF-CEM leukemia = tested on: CCRF-CEM leukemia
COLO 205 colon = tested on: COLO 205 colon
DLD-1 colon = tested on: DLD-1 colon
DMS 273 small cell lung = tested on: DMS 273 small cell lung
EKVX NSCLC = tested on: EKVX NSCLC
HCC-2998 colon = tested on: HCC-2998 colon
HCT-116 colon = tested on: HCT-116 colon
HCT-15 colon = tested on: HCT-15 colon
HL-60(TB) leukemia = tested on: HL-60(TB) leukemia
HOP-18 NSCLC = tested on: HOP-18 NSCLC
HOP-62 NSCLC = tested on: HOP-62 NSCLC
HOP-92 NSCLC = tested on: HOP-92 NSCLC
HT29 colon = tested on: HT29 colon
IGROV1 ovarian = tested on: IGROV1 ovarian
KM12 colon = tested on: KM12 colon
KM20L2 colon = tested on: KM20L2 colon
LOX IMVI melanoma = tested on: LOX IMVI melanoma
LXFL 529 NSCLC = tested on: LXFL 529 NSCLC
M14 melanoma = tested on: M14 melanoma
M19-MEL melanoma = tested on: M19-MEL melanoma
MALME-3M melanoma = tested on: MALME-3M melanoma
MOLT-4 leukemia = tested on: MOLT-4 leukemia
NCI-H226 lung = tested on: NCI-H226 lung
NCI-H23 lung = tested on: NCI-H23 lung
NCI-H460 lung = tested on: NCI-H460 lung
NCI-H522 lung = tested on: NCI-H522 lung
OVCAR-3 ovarian = tested on: OVCAR-3 ovarian
OVCAR-4 ovarian = tested on: OVCAR-4 ovarian
OVCAR-5 ovarian = tested on: OVCAR-5 ovarian
OVCAR-8 ovarian = tested on: OVCAR-8 ovarian
RPMI-8226 leukemia = tested on: RPMI-8226 leukemia
RXF 393 renal = tested on: RXF 393 renal
SF-268 CNS = tested on: SF-268 CNS
SF-295 CNS = tested on: SF-295 CNS
SF-539 CNS = tested on: SF-539 CNS
SK-MEL-2 melanoma = tested on: SK-MEL-2 melanoma
SK-MEL-28 melanoma = tested on: SK-MEL-28 melanoma
SK-MEL-5 melanoma = tested on: SK-MEL-5 melanoma
SK-OV-3 ovarian = tested on: SK-OV-3 ovarian
SN12C renal = tested on: SN12C renal
SNB-19 CNS = tested on: SNB-19 CNS
SNB-75 CNS = tested on: SNB-75 CNS
SNB-78 CNS = tested on: SNB-78 CNS
TK-10 renal = tested on: TK-10 renal
U251 CNS = tested on: U251 CNS
UACC-257 melanoma = tested on: UACC-257 melanoma
UACC-62 melanoma = tested on: UACC-62 melanoma
UO-31 renal = tested on: UO-31 renal

Structure (SMILES): CC(=O)O.[Au].c1ccc([PH+](c2ccccc2)c2ccccc2)cc1
- GI50 (786-0 renal): 1.67 µM
- TGI (786-0 renal): 3.27 µM
- GI50 (A549 NSCLC): 18.8 µM
- TGI (A549 NSCLC): 66.1 µM
- GI50 (ACHN renal): 2.86 µM
- TGI (ACHN renal): 8.53 µM
- GI50 (CAKI-1 renal): 2.27 µM
- TGI (CAKI-1 renal): 5.35 µM
- GI50 (CCRF-CEM leukemia): 0.404 µM
- TGI (CCRF-CEM leukemia): 2.34 µM
- GI50 (COLO 205 colon): 1.99 µM
- TGI (COLO 205 colon): 4.73 µM
- GI50 (DLD-1 colon): 1.9 µM
- TGI (DLD-1 colon): 4.4 µM
- GI50 (DMS 273 small cell lung): 11.3 µM
- TGI (DMS 273 small cell lung): 55.4 µM
- GI50 (EKVX NSCLC): 3.61 µM
- TGI (EKVX NSCLC): 8.56 µM
- GI50 (HCC-2998 colon): 7 µM
- TGI (HCC-2998 colon): 15.2 µM
- GI50 (HCT-116 colon): 1.72 µM
- TGI (HCT-116 colon): 3.2 µM
- GI50 (HCT-15 colon): 1.56 µM
- TGI (HCT-15 colon): 3.15 µM
- GI50 (HL-60(TB) leukemia): 0.0578 µM
- TGI (HL-60(TB) leukemia): 0.266 µM
- GI50 (HOP-18 NSCLC): 2.14 µM
- TGI (HOP-18 NSCLC): 3.86 µM
- GI50 (HOP-62 NSCLC): 13.7 µM
- TGI (HOP-62 NSCLC): 27.7 µM
- GI50 (HOP-92 NSCLC): 3.02 µM
- TGI (HOP-92 NSCLC): 5.1 µM
- GI50 (HT29 colon): 11.5 µM
- TGI (HT29 colon): 32.5 µM
- GI50 (IGROV1 ovarian): 2.24 µM
- TGI (IGROV1 ovarian): 6.95 µM
- GI50 (KM12 colon): 11.7 µM
- TGI (KM12 colon): 39.8 µM
- GI50 (KM20L2 colon): 10.3 µM
- TGI (KM20L2 colon): 35 µM
- GI50 (LOX IMVI melanoma): 2.54 µM
- TGI (LOX IMVI melanoma): 7.98 µM
- GI50 (LXFL 529 NSCLC): 1.57 µM
- TGI (LXFL 529 NSCLC): 2.92 µM
- GI50 (M14 melanoma): 1.39 µM
- TGI (M14 melanoma): 2.77 µM
- GI50 (M19-MEL melanoma): 2.67 µM
- TGI (M19-MEL melanoma): 15.6 µM
- GI50 (MALME-3M melanoma): 1.62 µM
- TGI (MALME-3M melanoma): 3.15 µM
- GI50 (MOLT-4 leukemia): 1.61 µM
- TGI (MOLT-4 leukemia): 4.17 µM
- GI50 (NCI-H226 lung): 6.59 µM
- TGI (NCI-H226 lung): 19.1 µM
- GI50 (NCI-H23 lung): 2.36 µM
- TGI (NCI-H23 lung): 6.89 µM
- GI50 (NCI-H460 lung): 17.2 µM
- TGI (NCI-H460 lung): 74.7 µM
- GI50 (NCI-H522 lung): 0.526 µM
- TGI (NCI-H522 lung): 1.96 µM
- GI50 (OVCAR-3 ovarian): 2.43 µM
- TGI (OVCAR-3 ovarian): 5.52 µM
- GI50 (OVCAR-4 ovarian): 2 µM
- TGI (OVCAR-4 ovarian): 5.02 µM
- GI50 (OVCAR-5 ovarian): 14.4 µM
- TGI (OVCAR-5 ovarian): 28.6 µM
- GI50 (OVCAR-8 ovarian): 5.45 µM
- TGI (OVCAR-8 ovarian): 26.3 µM
- GI50 (RPMI-8226 leukemia): 1.32 µM
- TGI (RPMI-8226 leukemia): 4.46 µM
- GI50 (RXF 393 renal): 1.42 µM
- TGI (RXF 393 renal): 2.86 µM
- GI50 (SF-268 CNS): 3.05 µM
- TGI (SF-268 CNS): 11.5 µM
- GI50 (SF-295 CNS): 2.89 µM
- TGI (SF-295 CNS): > 100 µM
- GI50 (SF-539 CNS): 8.6 µM
- TGI (SF-539 CNS): 23.2 µM
- GI50 (SK-MEL-2 melanoma): 3.24 µM
- TGI (SK-MEL-2 melanoma): 8.47 µM
- GI50 (SK-MEL-28 melanoma): 1.63 µM
- TGI (SK-MEL-28 melanoma): 3.66 µM
- GI50 (SK-MEL-5 melanoma): 1.26 µM
- TGI (SK-MEL-5 melanoma): 2.9 µM
- GI50 (SK-OV-3 ovarian): 15.8 µM
- TGI (SK-OV-3 ovarian): 29.2 µM
- GI50 (SN12C renal): 2.94 µM
- TGI (SN12C renal): 8.85 µM
- GI50 (SNB-19 CNS): 4.11 µM
- TGI (SNB-19 CNS): 15.8 µM
- GI50 (SNB-75 CNS): 8.1 µM
- TGI (SNB-75 CNS): 20.5 µM
- GI50 (SNB-78 CNS): 8.06 µM
- TGI (SNB-78 CNS): > 70.3 µM
- GI50 (TK-10 renal): 2.92 µM
- TGI (TK-10 renal): 6.74 µM
- GI50 (U251 CNS): 2.57 µM
- TGI (U251 CNS): 7.49 µM
- GI50 (UACC-257 melanoma): 1.82 µM
- TGI (UACC-257 melanoma): 5.68 µM
- GI50 (UACC-62 melanoma): 1.47 µM
- TGI (UACC-62 melanoma): 4.03 µM
- GI50 (UO-31 renal): 11.1 µM
- TGI (UO-31 renal): 24.4 µM
